Data as given in ChEMBL document CHEMBL1142015, “New derivatives of 1alpha,25-dihydroxy-19-norvitamin D3 with two substituents at C-2: synthesis and biological activity” (Bioorg Med Chem Lett, 2005).
Where “and” joins values, the source holds several entries; their conditions need not be identical. Identical values can stand only once.

Key:
[1] = molecular target: T1, Vitamin D3 receptor (Bos taurus) (UniProt Q28037); assay: Percent binding affinity for bovine vitamin D receptor compared to 1a
T1 sequence (whole entry): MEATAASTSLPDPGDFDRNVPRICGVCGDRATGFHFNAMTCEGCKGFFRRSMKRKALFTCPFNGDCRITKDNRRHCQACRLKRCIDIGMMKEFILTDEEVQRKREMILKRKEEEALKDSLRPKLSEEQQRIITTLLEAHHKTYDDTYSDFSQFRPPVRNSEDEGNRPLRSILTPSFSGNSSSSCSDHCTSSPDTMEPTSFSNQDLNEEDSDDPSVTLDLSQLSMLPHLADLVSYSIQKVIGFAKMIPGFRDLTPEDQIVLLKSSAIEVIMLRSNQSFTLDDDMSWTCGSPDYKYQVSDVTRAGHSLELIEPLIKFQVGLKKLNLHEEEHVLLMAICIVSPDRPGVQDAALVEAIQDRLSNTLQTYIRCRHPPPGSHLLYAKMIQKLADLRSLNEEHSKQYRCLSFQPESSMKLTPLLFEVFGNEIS

[2] = molecular target: T2, Vitamin D3 receptor (Homo sapiens) (UniProt P11473); assay: Activation of vitamin D receptor in COS-7 cell transcription assay; format: functional, cell-based
T2 sequence (whole entry): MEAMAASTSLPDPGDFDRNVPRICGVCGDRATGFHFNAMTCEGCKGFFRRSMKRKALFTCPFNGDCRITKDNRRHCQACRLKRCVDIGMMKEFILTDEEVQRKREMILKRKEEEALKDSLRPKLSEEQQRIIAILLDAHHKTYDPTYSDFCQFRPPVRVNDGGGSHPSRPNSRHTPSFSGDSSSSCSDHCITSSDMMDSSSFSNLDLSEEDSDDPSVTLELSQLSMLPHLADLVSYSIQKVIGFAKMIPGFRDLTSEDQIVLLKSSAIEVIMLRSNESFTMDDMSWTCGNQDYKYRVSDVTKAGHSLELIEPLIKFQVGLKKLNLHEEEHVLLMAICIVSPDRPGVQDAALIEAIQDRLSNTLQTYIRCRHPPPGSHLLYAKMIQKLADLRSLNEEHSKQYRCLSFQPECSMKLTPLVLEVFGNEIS

[3] = molecular target: T1, Vitamin D3 receptor (Bos taurus); assay: Percent binding affinity for bovine vitamin D receptor compared to 2-Me-1-alpha,2,5-dihydroxy-19-norvitamin D3
[4] = molecular target: T1, Vitamin D3 receptor (Bos taurus); assay: Percent binding affinity for bovine vitamin D receptor compared to 2-Et-1-alpha,2,5-dihydroxy-19-norvitamin D3
[5] = molecular target: T2, Vitamin D3 receptor (Homo sapiens); assay: Percent activation of vitamin D receptor in COS-7 cell transcription assay at 10e-8 or 10e-9 M; format: functional, cell-based

C[C@H](CCCC(C)(C)O)[C@H]1CC[C@H]2/C(=C\C=C3C[C@@H](O)C4(CO4)[C@H](O)C3)CCC[C@]12C (stereo partly specified)
VDR affinity [1]: 4% and 3% | ED50 [2]: 0.005 µM and 0.004 µM

COCC1(O)[C@H](O)CC(=C/C=C2/CCC[C@]3(C)[C@@H]([C@@H](C)CCCC(C)(C)O)CC[C@@H]23)C[C@H]1O (stereo partly specified)
VDR affinity [1]: 20% and 10%

C[C@@H](CCCC(C)(C)O)[C@H]1CC[C@H]2/C(=C\C=C3C[C@@H](O)C(O)(CF)[C@H](O)C3)CCC[C@]12C (stereo partly specified)
VDR affinity [1]: 60%

C[C@@H](CCCC(C)(C)O)[C@H]1CC[C@H]2/C(=C\C=C3C[C@@H](O)C(C)(O)[C@H](O)C3)CCC[C@]12C (stereo partly specified)
VDR affinity [1]: 100% | ED50 [2]: 3.2 µM | VDR affinity [3]: 23% and 18%

COCC1(O)[C@H](O)CC(=C/C=C2/CCC[C@]3(C)[C@@H]([C@H](C)CCCC(C)(C)O)CC[C@@H]23)C[C@H]1O (stereo partly specified)
VDR affinity [1]: 4% and 0.1%

CCC1(O)[C@H](O)CC(=C/C=C2/CCC[C@]3(C)[C@@H]([C@H](C)CCCC(C)(C)O)CC[C@@H]23)C[C@H]1O (stereo partly specified)
VDR affinity [1]: 2% and 0.05%

C[C@@H](CCCC(C)(C)O)[C@H]1CC[C@H]2/C(=C\C=C3C[C@@H](O)C4(CO4)[C@H](O)C3)CCC[C@]12C (stereo partly specified)
ED50 [2]: 0.089 µM and 0.018 µM

C[C@H](CCCC(C)(C)O)[C@H]1CC[C@H]2/C(=C\C=C3C[C@@H](O)C(O)(CF)[C@H](O)C3)CCC[C@]12C (stereo partly specified)
VDR affinity [1]: 2% and 0.02%

CCC1(O)[C@H](O)CC(=C/C=C2/CCC[C@]3(C)[C@@H]([C@@H](C)CCCC(C)(C)O)CC[C@@H]23)C[C@H]1O (stereo partly specified)
VDR affinity [1]: 5% | VDR affinity [4]: 200% | Transcriptional activity [5]: 92%

C=C1/C(=C\C=C2/CCC[C@]3(C)[C@@H]([C@H](C)CCCC(C)(C)O)CC[C@@H]23)C[C@@H](O)C[C@@H]1O
VDR affinity [1]: 100%

C[C@H](CCCC(C)(C)O)[C@H]1CC[C@H]2/C(=C\C=C3C[C@@H](O)C(C)(O)[C@H](O)C3)CCC[C@]12C (stereo partly specified)
VDR affinity [3]: 21% and 2.6%
